Source: patent US20230167073A1 (Teijin Pharma Limited, priority 2020, published 2023)
Read-outs that look alike come from different tables or passages of the source.

Target: T1, Human TRPC6 (Homo sapiens, UniProt Q9Y210)
T1 construct: expressed in transfected cells
T1 sequence (Q9Y210 1-931): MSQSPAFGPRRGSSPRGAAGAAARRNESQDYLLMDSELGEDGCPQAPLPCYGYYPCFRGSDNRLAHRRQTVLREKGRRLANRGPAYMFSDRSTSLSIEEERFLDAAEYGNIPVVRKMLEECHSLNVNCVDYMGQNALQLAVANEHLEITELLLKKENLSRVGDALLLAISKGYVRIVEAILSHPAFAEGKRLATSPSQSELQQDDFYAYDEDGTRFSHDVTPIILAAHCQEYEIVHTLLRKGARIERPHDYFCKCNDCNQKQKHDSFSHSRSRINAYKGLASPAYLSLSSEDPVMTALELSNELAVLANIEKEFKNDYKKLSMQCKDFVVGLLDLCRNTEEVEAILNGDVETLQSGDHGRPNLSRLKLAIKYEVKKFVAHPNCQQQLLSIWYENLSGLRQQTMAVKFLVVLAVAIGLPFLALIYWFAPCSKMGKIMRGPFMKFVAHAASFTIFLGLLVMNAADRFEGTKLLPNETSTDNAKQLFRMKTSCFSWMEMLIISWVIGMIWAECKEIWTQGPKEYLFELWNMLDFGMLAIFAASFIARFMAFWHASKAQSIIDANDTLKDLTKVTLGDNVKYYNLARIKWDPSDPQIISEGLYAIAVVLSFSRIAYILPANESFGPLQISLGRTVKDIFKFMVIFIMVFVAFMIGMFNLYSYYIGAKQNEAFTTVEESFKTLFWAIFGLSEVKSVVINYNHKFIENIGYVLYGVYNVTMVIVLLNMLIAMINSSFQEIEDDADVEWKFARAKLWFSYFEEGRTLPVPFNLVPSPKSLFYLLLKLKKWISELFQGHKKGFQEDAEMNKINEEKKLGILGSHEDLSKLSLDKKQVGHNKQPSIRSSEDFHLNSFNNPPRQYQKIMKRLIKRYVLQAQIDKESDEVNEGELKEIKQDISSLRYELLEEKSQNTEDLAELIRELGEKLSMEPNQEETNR
Assay: Evaluation of TRPC6 channel inhibitory activity (1), FLIPR Calcium 5 Assay Kit, OAG stimulation (Compound Nos. 1-1293)
Type: cell-based
In short: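 TRPC6 (human) stable cells, 24 h culture; Ca5 no-wash dye + probenecid 30 min; cpd 20 min; OAG 30 μM final; ΔF (pre-cpd min to post-OAG max); 0%/100% = no cpd / no cpd + no OAG; 4PL → pIC50, binned +/++/+++.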

[1] = Human TRPC6 stably-expressing cells, OAG 30 μM, FLIPR Calcium 5 Assay Kit, read-out: Inhibitory activity (pIC50 class) (converted)

SMILES	IC50 [1] [nM]	IC50 [nM]
Cn1nc(-c2ccccc2)cc1Oc1cc(C#N)ccc1-c1ncc2c(n1)CCNC2 [Compound 292, 3-(2-methyl-5-phenylpyrazol-3-yl)oxy-4-(5,6,7,8-tetrahydropyrido[4,3-d]pyrimidin-2-yl)benzonitrile]	10 to 1000	
N#Cc1ccc(-c2ccc(C(O)CN)cc2)c(Oc2cnnc(-c3ccccc3)c2)c1 (stereo not shown) [Compound 82, 4-[4-(2-amino-1-hydroxyethyl)phenyl]-3-(6-phenylpyridazin-4-yl)oxybenzonitrile]	< 10	
N#Cc1ccc(-c2ncc(CN)cn2)c(Oc2cc(N3C4CCC3CC4)ncc2C#N)c1 [compound 749, 4-[2-[5-(aminomethyl)pyrimidin-2-yl]-5-cyanophenoxy]-6-(7-azabicyclo[2.2.1]heptan-7-yl)pyridine-3-carbonitrile]		10 to 1000
Cc1cc(Oc2cc(C#N)ccc2-c2ccc(CN3CCOCC3)cn2)cc(N2CCOCC2)n1 [compound 425, 3-(2-methyl-6-morpholin-4-ylpyridin-4-yl)oxy-4-[5-(morpholin-4-ylmethyl)pyridin-2-yl]benzonitrile]	> 1000	
NCCc1cnc(-c2ccc(F)cc2C(=O)c2cnn(CC(F)F)c2)nc1 [compound 1098, [2-[5-(2-aminoethyl)pyrimidin-2-yl]-5-fluorophenyl]-[1-(2,2-difluoroethyl)pyrazol-4-yl]methanone]	> 1000	
Cn1nc(-c2ccccn2)cc1Oc1cc(C#N)ccc1-c1ccc(C(O)CN)cc1 (stereo not shown) [Compound 161, 4-[4-(2-amino-1-hydroxyethyl)phenyl]-3-(2-methyl-5-pyridin-2-ylpyrazol-3-yl)oxybenzonitrile]	< 10	
Cc1sc(N2CCOCC2)nc1C(=O)c1cc(C#N)ccc1-c1ccc(CCN)cn1 [compound 1068, 4-[5-(2-aminoethyl)pyridin-2-yl]-3-(5-methyl-2-morpholin-4-yl-1,3-thiazole-4-carbonyl)benzonitrile]	10 to 1000	
Cn1nc(C2CC2)cc1Oc1cc(C#N)ccc1-c1ccc(C(=O)CN)cc1 [Compound 214, 4-[4-(2-aminoacetyl)phenyl]-3-(5-cyclopropyl-2-methylpyrazol-3-yl)oxybenzonitrile]	10 to 1000	
Cn1nc(-c2cscn2)cc1Oc1cc(C#N)ccc1-c1ncc(CCN)cn1 [compound 952, 4-[5-(2-aminoethyl)pyrimidin-2-yl]-3-[2-methyl-5-(1,3-thiazol-4-yl)pyrazol-3-yl]oxybenzonitrile]	< 10	
Cn1nc(N2CCOCC2)cc1Oc1cc(F)ccc1-c1ccc(CN)cn1 [compound 976, [6-[4-fluoro-2-(2-methyl-5-morpholin-4-ylpyrazo1-3-yl)oxyphenyl]pyridin-3-yl]methanamine]	10 to 1000	
Cc1cc(Oc2cc(C#N)ccc2-c2ncc(CN)cn2)cc(NC2CCOCC2)n1 [compound 648, 4-[5-(aminomethyl)pyrimidin-2-yl]-3-[2-methyl-6-(oxan-4-ylamino)pyridin-4-yl]oxybenzonitrile]	> 1000	
Cc1cccc(-c2cn(Cc3cc(C#N)ccc3-c3ccc(CCN)cn3)c(C)n2)c1 [compound 1155, 4-[5-(2-aminoethyl)pyridin-2-yl]-3-[[2-methyl-4-(3-methylphenyl)imidazol-1-yl]methyl]benzonitrile]	< 10	
COCCN(C)c1cc(Oc2cc(C#N)ccc2-c2ccc(CN)cn2)n(C)n1 [compound 799, 4-[5-(aminomethyl)pyridin-2-yl]-3-[5-[2-methoxyethyl(methyl)amino]-2-methylpyrazol-3-yl]oxybenzonitrile]	< 10	
Cc1cc(Oc2cc(C#N)ccc2-c2ncc(CCN)cn2)cc(N2C3CCC2COC3)n1 [compound 445, 4-[5-(2-aminoethyl)pyrimidin-2-yl]-3-[2-methyl-6-(3-oxa-8-azabicyclo[3.2.1]octan-8-yl)pyridin-4-yl]oxybenzonitrile]		< 10
Cn1nc(C2CC2)cc1Oc1cc(C#N)ccc1-c1ncc(CC(C)(C)N)cn1 [compound 477, 4-[5-(2-amino-2-methylpropyl)pyrimidin-2-yl]-3-(5-cyclopropyl-2-methylpyrazol-3-yl)oxybenzonitrile]	< 10	
Cc1nn(-c2ccccn2)cc1Cc1cc(C#N)ccc1-c1ccc(CCN)cn1 [compound 1203, 4-[5-(2-aminoethyl)pyridin-2-yl]-3-[(3-methyl-1-pyridin-2-ylpyrazol-4-yl)methyl]benzonitrile]	< 10	
Cc1cc(N2CCOCC2)cc(Oc2cc(C#N)ccc2-c2ccc(CCN)cc2)n1 [Compound 128, 4-[4-(2-aminoethyl)phenyl]-3-(6-methyl-4-morpholin-4-ylpyridin-2-yl)oxybenzonitrile]	> 1000	
CCc1cc(C(=O)c2cc(C#N)ccc2-c2ncc(CN)cn2)n(C)n1 [compound 1026, 4-[5-(aminomethyl)pyrimidin-2-yl]-3-(5-ethyl-2-methylpyrazole-3-carbonyl)benzonitrile]	< 10	
Cc1cnc(-c2cc(Oc3cc(C#N)ccc3-c3ncc(CN)cn3)n(C)n2)s1 [compound 960, 4-[5-(aminomethyl)pyrimidin-2-yl]-3-[2-methyl-5-(5-methyl-1,3-thiazol-2-yl)pyrazol-3-yl]oxybenzonitrile]	10 to 1000	
COCCN(C)c1cc(Oc2cc(C#N)ccc2-c2ncc(CCN)cn2)cc(C)n1 [compound 458, 4-[5-(2-aminoethyl)pyrimidin-2-yl]-3-[2-[2-methoxyethyl(methyl)amino]-6-methylpyridin-4-yl]oxybenzonitrile]	< 10	
CC(C)c1cn(Cc2cc(C#N)ccc2-c2ncc(CN)cn2)nn1 [compound 1189, 4-[5-(aminomethyl)pyrimidin-2-yl]-3-[(4-propan-2-yltriazol-1-yl)methyl]benzonitrile]	10 to 1000	

Now from value to compound, other results behind:

IC50 [1] [nM]	SMILES	IC50 [nM]
< 10	Cc1nc(Oc2cc(C#N)ccc2-n2cc([C@@H](O)CN)cn2)cc(-c2ccccc2C#N)n1 [compound 341, 4-[4-[(1R)-2-amino-1-hydroxyethyl]pyrazol-1-yl]-3-[6-(2-cyanophenyl)-2-methylpyrimidin-4-yl]oxybenzonitrile]	
< 10	Cc1nc(Oc2cc(C#N)ccc2-c2ccc(CCN)cc2)cc(N2CCC[C@@H]2C#N)n1 [Compound 130, (2R)-1-[6-[2-[4-(2-aminoethyl)phenyl]-5-cyanophenoxy]-2-methylpyrimidin-4-yl]pyrrolidine-2-carbonitrile]	
> 1000	Cn1nc(C2CC2)cc1Oc1cc(C#N)ccc1-c1ccc(C(N)C(=O)N2CCCCC2)cn1 (stereo not shown) [compound 486, 4-[5-(1-amino-2-oxo-2-piperidin-1-ylethyl)pyridin-2-yl]-3-(5-cyclopropyl-2-methylpyrazol-3-yl)oxybenzonitrile]	
10 to 1000	Cc1nnc(N2CCCC2)cc1Oc1cc(C#N)ccc1-c1ncc(CN)cn1 [compound 824, 4-[5-(aminomethyl)pyrimidin-2-yl]-3-(3-methyl-6-pyrrolidin-1-ylpyridazin-4-yl)oxybenzonitrile]	
10 to 1000	Cc1nc(Sc2cc(C#N)ccc2-c2ncc(CCN)cn2)cc(N2CCCC2)n1 [compound 1256, 4-[5-(2-aminoethyl)pyrimidin-2-yl]-3-(2-methyl-6-pyrrolidin-1-ylpyrimidin-4-yl)sulfanylbenzonitrile]	
10 to 1000	Cc1nc(Oc2cc(C#N)ccc2-c2ncc(CN)cn2)cc(N2CCCC2)n1 [compound 658, 4-[5-(aminomethyl)pyrimidin-2-yl]-3-(2-methyl-6-pyrrolidin-1-ylpyrimidin-4-yl)oxybenzonitrile]	
< 10	Cc1nc(Oc2cc(C#N)ccc2-n2cc([C@@H](O)CN)cn2)cc(N2CCCC2)n1 [Compound 232, 4-[4-[(1R)-2-amino-1-hydroxyethyl]pyrazol-1-yl]-3-(2-methyl-6-pyrrolidin-1-ylpyrimidin-4-yl)oxybenzonitrile]	
> 1000	Cc1nc(Oc2cc(C#N)ccc2-c2ncc(CN)cn2)cc(O[C@H]2CCOC2)n1 [compound 845, 4-[5-(aminomethyl)pyrimidin-2-yl]-3-[2-methyl-6-[(3S)-oxolan-3-yl]oxypyrimidin-4-yl]oxybenzonitrile]	
> 1000	Cc1nc(Oc2cc(C#N)ccc2-c2ccc(CCN)nc2)cc(-c2cccnc2)n1 [Compound 188, 4-[6-(2-aminoethyl)pyridin-3-yl]-3-(2-methyl-6-pyridin-3-ylpyrimidin-4-yl)oxybenzonitrile]	
10 to 1000	Cn1nc(N2CCOCC2)cc1Oc1cc(C#N)ccc1-c1ncc(CCN)cn1 [compound 771, 4-[5-(2-aminoethyl)pyrimidin-2-yl]-3-(2-methyl-5-morpholin-4-ylpyrazol-3-yl)oxybenzonitrile]	
